Results from patent publication US8163793B2, “Proline derivatives” (Hoffman-La Roche Inc., priority 2009, dated 2012).
Counter-ions that a name gives are not always drawn.

Key:
Cathepsin S = Cathepsin S (UniProt P25774); experiment: Cathepsin enzyme inhibition assay (fluorogenic peptide substrate Z-Val-Val-Arg-AMC), Cathepsin S; format: biochemical, human and mouse; conditions: enzyme 1 nM, substrate 20 μM, pH 6.5; read-out: CatS IC50
Method in brief: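 Human or mouse cathepsin S (1 nM) was run in 100 mM potassium phosphate pH 6.5 with 5 mM EDTA, 0.001% Triton X-100 and 5 mM DTT. The rise in AMC fluorescence from cleavage was measured, and IC50 values were calculated by standard methods and expressed in μM.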

Cat L = Cat L (UniProt P07711); experiment: Cathepsin enzyme inhibition assay (fluorogenic peptide substrate Z-Val-Val-Arg-AMC), Cathepsin L; format: biochemical, human and mouse; conditions: enzyme 1 nM, substrate 20 μM, pH 6.5; read-out: CatL IC50
Method in brief: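 Cathepsin L at 1 nM was mixed with compound, then started with 20 μM Z-Val-Val-Arg-AMC in pH 6.5 potassium phosphate with EDTA, Triton X-100 and 5 mM DTT. AMC fluorescence (ex 360/em 465 nm) was followed over 20 min. IC50 is given in μM.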

| SMILES | IC50 (Cathepsin S) [nM] | IC50 (Cat L) [nM] |
| --- | --- | --- |
| N#CC1(NC(=O)[C@@H]2C[C@@H](S(=O)(=O)c3cccc(Cl)c3Cl)CN2)CC1 [Example 51, (2S,4R)-4-(2,3-Dichloro-benzenesulfonyl)-pyrrolidine-2-carboxylic acid (1-cyano-cyclopropyl)-amide Hydrochloride] | 26 | ≥ 25000 |
| CC(CN1C[C@H](S(=O)(=O)c2ccccc2Cl)C[C@H]1C(=O)NC1(C#N)CC1)C(F)(F)F (stereo partly drawn) [Example 90, (2S,4R)-4-(2-Chloro-benzenesulfonyl)-1-(3,3,3-trifluoro-2-methyl-propyl)-pyrrolidine-2-carboxylic acid (1-cyano-cyclopropyl)-amide] | 84.5 | ≥ 25000 |
| CC(=O)N[C@H]1CC[C@H](CC(=O)N2C[C@H](S(=O)(=O)c3ccc(OCC(F)(F)F)cc3Cl)C[C@H]2C(=O)NC2(C#N)CC2)CC1 [Example 274, (2S,4R)-1-[2-(4-Acetylamino-cyclohexyl)-acetyl]-4-[2-chloro-4-(2,2,2-trifluoro-ethoxy)-benzenesulfonyl]-pyrrolidine-2-carboxylic acid (1-cyano-cyclopropyl)-amide] | 0.935 | 9130 |
| N#CC1(NC(=O)[C@@H]2C[C@@H](S(=O)(=O)c3ccccc3Cl)CN2C(=O)[C@H](N)c2ccc(Cl)cc2)CC1 [Example 417, (2S,4R)-1-[(R)-2-Amino-2-(4-chloro-phenyl)-acetyl]-4-(2-chloro-benzenesulfonyl)-pyrrolidine-2-carboxylic acid (1-cyano-cyclopropyl)-amide] | 2.45 | 55.5 |
| N#CC1(NC(=O)[C@@H]2C[C@@H](S(=O)(=O)c3ccccc3Cl)CN2C(=O)[C@H](O)c2ccc(Cl)cc2)CC1 [Example 411, (2S,4R)-4-(2-Chloro-benzenesulfonyl)-1-[(R)-2-(4-chloro-phenyl)-2-hydroxy-acetyl]-pyrrolidine-2-carboxylic acid (1-cyano-cyclopropyl)-amide] | 0.525 | 550 |
| N#CC1(NC(=O)[C@@H]2C[C@@H](S(=O)(=O)c3ccc(N4CCCC4=O)cc3C(F)(F)F)CN2)CC1 [Example 26, (2S,4R)-4-[4-(2-Oxo-pyrrolidin-1-yl)-2-trifluoromethyl-benzenesulfonyl]-pyrrolidine-2-carboxylic acid (1-cyano-cyclopropyl)-amide hydrochloride] | 2.8 | ≥ 25000 |

The next molecules have a lower IC50 (Cathepsin S) than those just listed; values first:

| IC50 (Cathepsin S) [nM] | IC50 (Cat L) [nM] | SMILES |
| --- | --- | --- |
| 0.5 | 43700 | Cc1cc(N2C[C@H](S(=O)(=O)c3ccccc3C(F)(F)F)C[C@H]2C(=O)NC2(C#N)CC2)n(-c2ccccc2)n1 [Example 192, (2S,4R)-1-(5-Methyl-2-phenyl-2H-pyrazol-3-yl)-4-(2-trifluoromethyl-benzenesulfonyl)-pyrrolidine-2-carboxylic acid (1-cyano-cyclopropyl)-amide] |
| 0.46 | 1080 | Cc1cc(N2C[C@H](S(=O)(=O)c3ccc(N4CCN(C)CC4)cc3Cl)C[C@H]2C(=O)NC2(C#N)CC2)n(C2CCC2)n1 [Example 401, (2S,4R)-4-[2-Chloro-4-(4-methyl-piperazin-1-yl)-benzenesulfonyl]-1-(2-cyclobutyl-5-methyl-2H-pyrazol-3-yl)-pyrrolidine-2-carboxylic acid (1-cyano-cyclopropyl)-amide] |
| 0.4 | 7970 | N#CC1(NC(=O)[C@@H]2C[C@@H](S(=O)(=O)c3ccccc3Cl)CN2C(=O)C2(C(F)(F)F)CC2)CC1 [Example 213, (2S,4R)-4-(2-Chloro-benzenesulfonyl)-1-(1-trifluoromethyl-cyclopropanecarbonyl)-pyrrolidine-2-carboxylic acid (1-cyano-cyclopropyl)-amide] |
| 0.195 | 580 | N#CC1(NC(=O)[C@@H]2C[C@@H](S(=O)(=O)c3ccc(OCC(F)(F)F)cc3Cl)CN2C(=O)C2(c3cccc(Br)c3)CC2)CC1 [Example 332, (2S,4R)-1-[1-(3-Bromo-phenyl)-cyclopropanecarbonyl]-4-[2-chloro-4-(2,2,2-trifluoro-ethoxy)-benzenesulfonyl]-pyrrolidine-2-carboxylic acid (1-cyano-cyclopropyl)-amide] |
| 0.18 | 1050 | N#CC1(NC(=O)[C@@H]2C[C@@H](S(=O)(=O)c3ccc(OCC(F)(F)F)cc3Cl)CN2C(=O)C2(c3cccc(Cl)c3)CC2)CC1 [Example 331, (2S,4R)-1-[1-(3-Chloro-phenyl)-cyclopropanecarbonyl]-4-[2-chloro-4-(2,2,2-trifluoro-ethoxy)-benzenesulfonyl]-pyrrolidine-2-carboxylic acid (1-cyano-cyclopropyl)-amide] |
| 0.06 | 31800 | CC(=O)Nc1cccc(-n2nc(C)cc2N2C[C@H](S(=O)(=O)c3ccccc3C(F)(F)F)C[C@H]2C(=O)NC2(C#N)CC2)c1 [Example 356, (2S,4R)-1-[2-(3-Acetylamino-phenyl)-5-methyl-2H-pyrazol-3-yl]-4-(2-trifluoromethyl-benzenesulfonyl)-pyrrolidine-2-carboxylic acid (1-cyano-cyclopropyl)-amide] |
| 0.05 | 20800 | Cn1cc(-c2ccc(S(=O)(=O)[C@@H]3C[C@@H](C(=O)NC4(C#N)CC4)N(C(=O)C4(C(F)(F)F)CC4)C3)c(C(F)(F)F)c2)cn1 [Example 238, (2S,4R)-4-[4-(1-Methyl-1H-pyrazol-4-yl)-2-trifluoromethyl-benzenesulfonyl]-1-(1-trifluoromethyl-cyclopropanecarbonyl)-pyrrolidine-2-carboxylic acid (1-cyano-cyclopropyl)-amide] |
